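In this assay, cells in 96-well plates receive the compound at five concentrations for 48 hours. Endpoints are linearly interpolated between the surrounding concentrations. TGI denotes the concentration required for complete inhibition of growth.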
Legend:
Assay in all cases: inhibition of tumour cell growth, NCI panel, 48 h
MDA-MB-231 breast = tested on: MDA-MB-231 breast
SK-MEL-2 melanoma = tested on: SK-MEL-2 melanoma
NCI/ADR-RES ovarian = tested on: NCI/ADR-RES ovarian
HOP-92 NSCLC = tested on: HOP-92 NSCLC
COLO 205 colon = tested on: COLO 205 colon
HOP-62 NSCLC = tested on: HOP-62 NSCLC
MCF7 breast = tested on: MCF7 breast
HL-60(TB) leukemia = tested on: HL-60(TB) leukemia
SK-MEL-28 melanoma = tested on: SK-MEL-28 melanoma
HCT-116 colon = tested on: HCT-116 colon
NCI-H522 lung = tested on: NCI-H522 lung
U251 CNS = tested on: U251 CNS
KM12 colon = tested on: KM12 colon
SF-539 CNS = tested on: SF-539 CNS
TK-10 renal = tested on: TK-10 renal
HCC-2998 colon = tested on: HCC-2998 colon
OVCAR-5 ovarian = tested on: OVCAR-5 ovarian

| SMILES | TGI (MDA-MB-231 breast) [µM] | TGI (SK-MEL-2 melanoma) [µM] | TGI (NCI/ADR-RES ovarian) [µM] | TGI (HOP-92 NSCLC) [µM] | TGI (COLO 205 colon) [µM] | TGI (HOP-62 NSCLC) [µM] | TGI (MCF7 breast) [µM] | TGI (HL-60(TB) leukemia) [µM] | TGI (SK-MEL-28 melanoma) [µM] | TGI (HCT-116 colon) [µM] | TGI (NCI-H522 lung) [µM] | TGI (U251 CNS) [µM] | TGI (KM12 colon) [µM] | TGI (SF-539 CNS) [µM] | TGI (TK-10 renal) [µM] | TGI (HCC-2998 colon) [µM] | TGI (OVCAR-5 ovarian) [µM] |
| --- | --- | --- | --- | --- | --- | --- | --- | --- | --- | --- | --- | --- | --- | --- | --- | --- | --- |
| COc1cc(/C=N\N(C)C)cc(/C=N/N(C)C)c1O | 80 | 28.1 | > 100 | 61.8 | 46.9 | > 100 | > 100 | > 100 | 59.7 | > 100 | > 100 | 74.8 | > 100 | 37.1 | > 100 | – | – |
| CC(=O)Oc1cc(Cl)c(C)c2c1[C@H]1CC[C@]3(C)[C@@H](OC(C)=O)CC[C@H]3[C@@H]1CC2 | > 100 | – | > 100 | > 100 | – | > 100 | > 100 | > 100 | > 100 | > 100 | > 100 | > 100 | > 100 | > 100 | > 100 | > 100 | > 100 |
| Cc1ccc(S(=O)(=O)c2ccsc2NC(=O)C(F)(F)F)cc1 | 56.2 | 94.7 | > 100 | > 100 | 24.5 | > 100 | > 100 | – | > 100 | 95.3 | > 100 | > 100 | > 100 | > 100 | > 100 | > 100 | > 100 |
| NCCCCC(NC(=O)C(N)Cc1ccc(O)cn1)C(=O)O (stereo not drawn) | > 100 | – | > 100 | > 100 | > 100 | > 100 | > 100 | > 100 | > 100 | > 100 | > 100 | > 100 | > 100 | > 100 | > 100 | > 100 | > 100 |
| C=C1[C@H](OC(C)=O)[C@H]2[C@@H](OC(C)=O)[C@@H](C)C[C@]2(C)C(=O)[C@H](C)/C=C/C(C)(C)C(=O)[C@H](OCC(C)C)[C@H]1OC(C)=O | > 25 | > 25 | > 25 | > 25 | > 25 | > 25 | > 25 | > 25 | – | > 25 | > 25 | > 25 | > 25 | > 25 | > 25 | > 25 | > 25 |
| c1ccc(-c2nc3ccccc3n3c(CN4CCCCC4)nnc23)cc1 | > 100 | > 100 | > 100 | > 100 | > 100 | > 100 | > 100 | – | > 100 | > 100 | > 100 | > 100 | – | > 100 | > 100 | > 100 | > 100 |
| O=C1CN(C(=O)C2CCCN2C(=O)C2CCCN2)C(=O)CN1 (stereo not drawn) | > 100 | – | > 100 | > 100 | > 100 | > 100 | > 100 | > 100 | > 100 | > 100 | > 100 | > 100 | > 100 | – | > 100 | > 100 | > 100 |
| CCOC(=O)c1cc2c([nH]1)c(O)cc1c2ccn1Cc1ccccc1 | 49.1 | 36.6 | 38.5 | 27.7 | 39.8 | 38.7 | 44.4 | 33.9 | 33.8 | 23.8 | – | 31.6 | 24.8 | 40.2 | – | 37 | 41.4 |
| N#Cc1c(=O)n(-c2ccccc2)c(O)c2c(N)n[nH]c12 | > 100 | > 100 | > 100 | > 100 | > 100 | – | > 100 | > 100 | > 100 | > 100 | > 100 | > 100 | > 100 | > 100 | > 100 | > 100 | > 100 |
| CC1(C)C2CCC(CN)(C2)C1N (stereo not drawn) | > 100 | > 100 | > 100 | > 100 | > 100 | > 100 | > 100 | > 100 | > 100 | > 100 | – | > 100 | > 100 | > 100 | > 100 | > 100 | > 100 |
| Cc1cc(S(=O)(=O)Nc2nc(N)n(-c3ccccn3)n2)c(S)cc1Cl | > 100 | > 100 | > 100 | – | > 100 | > 100 | > 100 | > 100 | > 100 | > 100 | > 100 | > 100 | > 100 | > 100 | > 100 | > 100 | > 100 |
| OC1(c2ccc(Cl)cc2)C(N2CCCC2)c2ccccc2C2=NCCN21 (stereo not drawn) | > 100 | 45 | 59.9 | 62.9 | 23.9 | > 100 | 94.8 | 50.7 | 31.9 | 46.6 | – | > 100 | 60 | 39.4 | 40 | – | > 100 |
| c1ccc2c(c1)CC1=C(O2)c2ccccc2OC1 | 76.2 | 70.3 | > 100 | 95 | 38.3 | > 100 | > 100 | – | – | 30.6 | 44.5 | 59.2 | > 100 | 71.6 | 94.3 | 42.2 | > 100 |
| N#CC12CNCC1CN=N2 (stereo not drawn) | > 100 | > 100 | > 100 | > 100 | > 100 | > 100 | > 100 | > 100 | > 100 | > 100 | > 100 | > 100 | > 100 | – | > 100 | > 100 | > 100 |
| OC1(c2ccccc2)C2CCN(CC2)C1CN1CCOCC1 (stereo not drawn) | > 100 | > 100 | > 100 | – | > 100 | > 100 | > 100 | > 100 | > 100 | > 100 | > 100 | > 100 | > 100 | > 100 | > 100 | > 100 | > 100 |
